Results on 8 compounds are retold here after ChEMBL document CHEMBL3132785, “Design, synthesis and evaluation of N6-substituted 2-aminoadenosine-5-N-methylcarboxamides as A3 adenosine receptor agonists” (Medchemcomm, 2014).

Structures are written as SMILES.

The species entered for the first experiment is Homo sapiens. In words: Selectivity ratio; ratio of pEC50 for human adenosine A2B receptor to pEC50 for human adenosine A3 receptor.
On to `CNC(=O)[C@H]1O[C@@H](n2cnc3c(NC4CCCC4)nc(N)nc32)[C@H](O)[C@@H]1O`, for which the Selectivity ratio was found to be 50.
With `CNC(=O)[C@H]1O[C@@H](n2cnc3c(NCCc4ccccc4)nc(N)nc32)[C@H](O)[C@@H]1O`, the Selectivity ratio was determined as 40.
Take `CCNc1nc(NC2CCCC2)c2ncn([C@@H]3O[C@H](C(=O)NC)[C@@H](O)[C@H]3O)c2n1`: the Selectivity ratio was > 251.
Consider `CNC(=O)[C@H]1O[C@@H](n2cnc3c(NC)nc(N)nc32)[C@H](O)[C@@H]1O`, for which the Selectivity ratio was found to be 316.
Still for that read-out and setting: in the case of `CNC(=O)[C@H]1O[C@@H](n2cnc3c(NC4CCCC4)nc(NC)nc32)[C@H](O)[C@@H]1O` it was > 100.
The same measure, in the same setting: in the case of `CNC(=O)[C@H]1O[C@@H](n2cnc3c(NCc4cccc(I)c4)nc(N)nc32)[C@H](O)[C@@H]1O` it was 100; in that of `CNC(=O)[C@H]1O[C@@H](n2cnc3c(NCc4ccccc4)nc(N)nc32)[C@H](O)[C@@H]1O`, 4; in that of `CCCNc1nc(N)nc2c1ncn2[C@@H]1O[C@H](C(=O)NC)[C@@H](O)[C@H]1O`, 501.

For a further experiment, the species on record is Homo sapiens. In words: Selectivity ratio; ratio of pEC50 for human adenosine A2A receptor to pEC50 for human adenosine A3 receptor.
Regarding `CNC(=O)[C@H]1O[C@@H](n2cnc3c(NC4CCCC4)nc(N)nc32)[C@H](O)[C@@H]1O`, the Selectivity ratio came to 79.
As for `CNC(=O)[C@H]1O[C@@H](n2cnc3c(NCCc4ccccc4)nc(N)nc32)[C@H](O)[C@@H]1O`, the Selectivity ratio was 20.
On the same count and under the same terms, then `CCNc1nc(NC2CCCC2)c2ncn([C@@H]3O[C@H](C(=O)NC)[C@@H](O)[C@H]3O)c2n1`, with 8; and `CNC(=O)[C@H]1O[C@@H](n2cnc3c(NC)nc(N)nc32)[C@H](O)[C@@H]1O`, with > 2000; and `CNC(=O)[C@H]1O[C@@H](n2cnc3c(NC4CCCC4)nc(NC)nc32)[C@H](O)[C@@H]1O`, with 40.
With `CNC(=O)[C@H]1O[C@@H](n2cnc3c(NCc4cccc(I)c4)nc(N)nc32)[C@H](O)[C@@H]1O`, the Selectivity ratio came out at 158.
Still for that read-out and setting: in the case of `CNC(=O)[C@H]1O[C@@H](n2cnc3c(NCc4ccccc4)nc(N)nc32)[C@H](O)[C@@H]1O` it was 100.
`CCCNc1nc(N)nc2c1ncn2[C@@H]1O[C@H](C(=O)NC)[C@@H](O)[C@H]1O`: the Selectivity ratio is > 1000.

In another experiment the target is Adenosine receptors; A1 & A3 (Homo sapiens) (UniProt P30542+P0DMS8). The experiment can be described thus: Selectivity ratio; ratio of pEC50 for human adenosine A1 receptor to pEC50 for human adenosine A3 receptor.
With `CNC(=O)[C@H]1O[C@@H](n2cnc3c(NC4CCCC4)nc(N)nc32)[C@H](O)[C@@H]1O`, the Selectivity ratio was found to be 3.
The same measure, in the same setting: then `CNC(=O)[C@H]1O[C@@H](n2cnc3c(NCCc4ccccc4)nc(N)nc32)[C@H](O)[C@@H]1O`, with 79; and `CCNc1nc(NC2CCCC2)c2ncn([C@@H]3O[C@H](C(=O)NC)[C@@H](O)[C@H]3O)c2n1`, with 8; and `CNC(=O)[C@H]1O[C@@H](n2cnc3c(NC)nc(N)nc32)[C@H](O)[C@@H]1O`, with 794.
Still for that read-out and setting: then `CNC(=O)[C@H]1O[C@@H](n2cnc3c(NC4CCCC4)nc(NC)nc32)[C@H](O)[C@@H]1O`, with 4; and `CNC(=O)[C@H]1O[C@@H](n2cnc3c(NCc4cccc(I)c4)nc(N)nc32)[C@H](O)[C@@H]1O`, with 158.
On to `CNC(=O)[C@H]1O[C@@H](n2cnc3c(NCc4ccccc4)nc(N)nc32)[C@H](O)[C@@H]1O`, for which the Selectivity ratio amounted to 200.
In the case of `CCCNc1nc(N)nc2c1ncn2[C@@H]1O[C@H](C(=O)NC)[C@@H](O)[C@H]1O`, the Selectivity ratio is 32.

A further experiment has as its target T1, Adenosine receptor A3 (Homo sapiens, UniProt P0DMS8).
T1 sequence (P0DMS8 whole entry): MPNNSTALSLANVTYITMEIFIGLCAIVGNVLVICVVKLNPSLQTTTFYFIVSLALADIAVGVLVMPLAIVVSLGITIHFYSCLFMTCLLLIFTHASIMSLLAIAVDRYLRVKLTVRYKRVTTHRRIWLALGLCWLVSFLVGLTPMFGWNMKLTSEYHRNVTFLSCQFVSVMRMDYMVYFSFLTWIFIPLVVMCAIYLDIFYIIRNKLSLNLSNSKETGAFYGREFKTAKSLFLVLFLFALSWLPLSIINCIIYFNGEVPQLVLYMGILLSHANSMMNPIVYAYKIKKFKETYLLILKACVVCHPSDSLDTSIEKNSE
In words: Agonist activity at human adenosine A3 receptor expressed in FlpIn-CHO cells assessed as inhibition of forskolin-induced cAMP accumulation after 30 mins by fluorescence assay. The format is functional, cell-based.
As for `CNC(=O)[C@H]1O[C@@H](n2cnc3c(NC4CCCC4)nc(N)nc32)[C@H](O)[C@@H]1O`, the EC50 is 15.8 nM.
On the same count and under the same terms, then `CNC(=O)[C@H]1O[C@@H](n2cnc3c(NCCc4ccccc4)nc(N)nc32)[C@H](O)[C@@H]1O`, with 3.98 nM; and `CCNc1nc(NC2CCCC2)c2ncn([C@@H]3O[C@H](C(=O)NC)[C@@H](O)[C@H]3O)c2n1`, with 39.8 nM.
Same read-out and setting: then `CNC(=O)[C@H]1O[C@@H](n2cnc3c(NC)nc(N)nc32)[C@H](O)[C@@H]1O`, with 5.01 nM; and `CNC(=O)[C@H]1O[C@@H](n2cnc3c(NC4CCCC4)nc(NC)nc32)[C@H](O)[C@@H]1O`, with 100 nM; and `CNC(=O)[C@H]1O[C@@H](n2cnc3c(NCc4cccc(I)c4)nc(N)nc32)[C@H](O)[C@@H]1O`, with 1.58 nM.
The same measure, in the same setting: in the case of `CNC(=O)[C@H]1O[C@@H](n2cnc3c(NCc4ccccc4)nc(N)nc32)[C@H](O)[C@@H]1O` it was 31.6 nM.
With `CCCNc1nc(N)nc2c1ncn2[C@@H]1O[C@H](C(=O)NC)[C@@H](O)[C@H]1O`, the EC50 was 10 nM.

The target in another experiment is T2, Adenosine receptor A2b (Homo sapiens, UniProt P29275).
T2 sequence (P29275 whole entry): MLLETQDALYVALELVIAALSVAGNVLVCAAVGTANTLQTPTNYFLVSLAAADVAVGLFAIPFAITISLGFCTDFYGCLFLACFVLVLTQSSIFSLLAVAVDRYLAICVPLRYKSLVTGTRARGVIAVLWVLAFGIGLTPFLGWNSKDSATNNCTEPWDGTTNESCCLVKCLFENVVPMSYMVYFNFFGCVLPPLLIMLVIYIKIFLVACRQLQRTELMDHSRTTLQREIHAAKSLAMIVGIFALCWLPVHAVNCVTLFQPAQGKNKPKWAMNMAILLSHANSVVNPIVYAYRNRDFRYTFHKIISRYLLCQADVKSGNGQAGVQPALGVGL
The experiment can be described thus: Agonist activity at human adenosine A2B receptor expressed in FlpIn-CHO cells assessed as inhibition of forskolin-induced cAMP accumulation after 30 mins by fluorescence assay. In kind it is functional, cell-based.
In the case of `CNC(=O)[C@H]1O[C@@H](n2cnc3c(NC4CCCC4)nc(N)nc32)[C@H](O)[C@@H]1O`, the EC50 is 794 nM.
Take `CNC(=O)[C@H]1O[C@@H](n2cnc3c(NCCc4ccccc4)nc(N)nc32)[C@H](O)[C@@H]1O`: the EC50 is 158 nM.
With `CCNc1nc(NC2CCCC2)c2ncn([C@@H]3O[C@H](C(=O)NC)[C@@H](O)[C@H]3O)c2n1`, the EC50 is > 10000 nM.
Take `CNC(=O)[C@H]1O[C@@H](n2cnc3c(NC)nc(N)nc32)[C@H](O)[C@@H]1O`: the EC50 was 1580 nM.
Turning to `CNC(=O)[C@H]1O[C@@H](n2cnc3c(NC4CCCC4)nc(NC)nc32)[C@H](O)[C@@H]1O`, the EC50 was > 10000 nM.
Consider `CNC(=O)[C@H]1O[C@@H](n2cnc3c(NCc4cccc(I)c4)nc(N)nc32)[C@H](O)[C@@H]1O`, for which the EC50 was 158 nM.
Take `CNC(=O)[C@H]1O[C@@H](n2cnc3c(NCc4ccccc4)nc(N)nc32)[C@H](O)[C@@H]1O`: the EC50 was 126 nM.
The same measure, in the same setting: then `CCCNc1nc(N)nc2c1ncn2[C@@H]1O[C@H](C(=O)NC)[C@@H](O)[C@H]1O`, with 5010 nM.

In a further experiment the target is Adenosine receptor A2a (Homo sapiens, UniProt P29274). The experiment can be described thus: Agonist activity at human adenosine A2A receptor expressed in FlpIn-CHO cells assessed as inhibition of forskolin-induced cAMP accumulation after 30 mins by fluorescence assay. The format is functional, cell-based.
Chain of Adenosine receptor A2a (P29274 whole entry): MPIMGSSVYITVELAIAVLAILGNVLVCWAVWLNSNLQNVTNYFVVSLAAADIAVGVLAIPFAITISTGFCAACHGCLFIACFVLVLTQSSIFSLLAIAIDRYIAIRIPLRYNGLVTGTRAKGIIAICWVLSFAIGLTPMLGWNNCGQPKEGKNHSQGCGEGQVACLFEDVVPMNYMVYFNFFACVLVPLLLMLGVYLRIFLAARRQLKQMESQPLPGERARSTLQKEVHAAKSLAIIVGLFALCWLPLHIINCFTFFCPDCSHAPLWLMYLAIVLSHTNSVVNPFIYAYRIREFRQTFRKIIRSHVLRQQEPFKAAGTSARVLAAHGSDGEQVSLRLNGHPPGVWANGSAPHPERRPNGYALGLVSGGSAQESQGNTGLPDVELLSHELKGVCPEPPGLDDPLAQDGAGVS
As to `CNC(=O)[C@H]1O[C@@H](n2cnc3c(NC4CCCC4)nc(N)nc32)[C@H](O)[C@@H]1O`, the EC50 is 1260 nM.
The same measure, in the same setting: in the case of `CNC(=O)[C@H]1O[C@@H](n2cnc3c(NCCc4ccccc4)nc(N)nc32)[C@H](O)[C@@H]1O` it was 79.4 nM; in that of `CCNc1nc(NC2CCCC2)c2ncn([C@@H]3O[C@H](C(=O)NC)[C@@H](O)[C@H]3O)c2n1`, 501 nM; in that of `CNC(=O)[C@H]1O[C@@H](n2cnc3c(NC)nc(N)nc32)[C@H](O)[C@@H]1O`, > 10000 nM.
Same read-out and setting: in the case of `CNC(=O)[C@H]1O[C@@H](n2cnc3c(NC4CCCC4)nc(NC)nc32)[C@H](O)[C@@H]1O` it was 3980 nM; in that of `CNC(=O)[C@H]1O[C@@H](n2cnc3c(NCc4cccc(I)c4)nc(N)nc32)[C@H](O)[C@@H]1O`, 251 nM; in that of `CNC(=O)[C@H]1O[C@@H](n2cnc3c(NCc4ccccc4)nc(N)nc32)[C@H](O)[C@@H]1O`, 3160 nM.
With `CCCNc1nc(N)nc2c1ncn2[C@@H]1O[C@H](C(=O)NC)[C@@H](O)[C@H]1O`, the EC50 was > 10000 nM.

The target of the next experiment is T3, Adenosine receptor A1 (Homo sapiens, UniProt P30542).
T3 sequence (P30542 whole entry): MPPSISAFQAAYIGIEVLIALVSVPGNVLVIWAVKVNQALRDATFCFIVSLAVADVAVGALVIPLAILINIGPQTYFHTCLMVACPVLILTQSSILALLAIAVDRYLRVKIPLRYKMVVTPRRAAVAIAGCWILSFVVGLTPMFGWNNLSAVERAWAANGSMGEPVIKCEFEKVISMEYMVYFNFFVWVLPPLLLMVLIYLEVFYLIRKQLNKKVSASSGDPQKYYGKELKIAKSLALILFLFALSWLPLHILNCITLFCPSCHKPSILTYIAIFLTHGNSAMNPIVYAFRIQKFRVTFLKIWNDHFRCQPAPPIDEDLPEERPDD
In words: Agonist activity at human adenosine A1 receptor expressed in FlpIn-CHO cells assessed as inhibition of forskolin-induced cAMP accumulation after 30 mins by fluorescence assay. In kind it is functional, cell-based.
Consider `CNC(=O)[C@H]1O[C@@H](n2cnc3c(NC4CCCC4)nc(N)nc32)[C@H](O)[C@@H]1O`, for which the EC50 is 39.8 nM.
For the compound `CNC(=O)[C@H]1O[C@@H](n2cnc3c(NCCc4ccccc4)nc(N)nc32)[C@H](O)[C@@H]1O`, the EC50 is 316 nM.
The same measure, in the same setting: in the case of `CCNc1nc(NC2CCCC2)c2ncn([C@@H]3O[C@H](C(=O)NC)[C@@H](O)[C@H]3O)c2n1` it was 501 nM.
The same measure, in the same setting: in the case of `CNC(=O)[C@H]1O[C@@H](n2cnc3c(NC)nc(N)nc32)[C@H](O)[C@@H]1O` it was 3980 nM; in that of `CNC(=O)[C@H]1O[C@@H](n2cnc3c(NC4CCCC4)nc(NC)nc32)[C@H](O)[C@@H]1O`, 398 nM.
Still for that read-out and setting: then `CNC(=O)[C@H]1O[C@@H](n2cnc3c(NCc4cccc(I)c4)nc(N)nc32)[C@H](O)[C@@H]1O`, with 251 nM.
Regarding `CNC(=O)[C@H]1O[C@@H](n2cnc3c(NCc4ccccc4)nc(N)nc32)[C@H](O)[C@@H]1O`, the EC50 is 6310 nM.
The same measure, in the same setting: then `CCCNc1nc(N)nc2c1ncn2[C@@H]1O[C@H](C(=O)NC)[C@@H](O)[C@H]1O`, with 316 nM.
